Measured values from ChEMBL document CHEMBL5356949, “Development of novel thiazolidine-2,4-dione derivatives as PPAR-γ agonists through design, synthesis, computational docking, MD simulation, and comprehensive in vitro and in vivo evaluation” (RSC Med Chem, 2023).
Activity calls are given as the source filed them. No cut-off for these calls is given here.

Tests used:
[1] = test system: Rattus norvegicus; assay: Antidiabetic activity against dexamethasone-induced Wistar rat diabetic model assessed as restoration of histopathological changes at 17.5 mg/kg, sc administered once daily for 11 days and fasted for 12 hrs at end of the experimental period by hematoxylin and eosin staining based microscopic analysis; type: functional, organism-based; settings: time 11.5 day
[2] = test system: Rattus norvegicus; assay: Hypolipidemic activity against dexamethasone-induced Wistar rat model assessed as decrease in serum HDL-c level at 17.5 mg/kg, sc administered once daily for 11 days and fasted for 12 hrs at end of the experimental period; type: functional, organism-based; settings: time 11.5 day
[3] = test system: Rattus norvegicus; assay: Hypolipidemic activity against dexamethasone-induced Wistar rat model assessed as decrease in serum LDL-c level at 17.5 mg/kg, sc administered once daily for 11 days and fasted for 12 hrs at end of the experimental period; type: functional, organism-based; settings: time 11.5 day
[4] = test system: C2C12; assay: Antidiabetic activity in mouse C2C12 cells assessed as increase in glucose uptake incubated for 30 mins; type: functional, cell-based
[5] = test system: Rattus norvegicus; assay: Hypolipidemic activity against dexamethasone-induced Wistar rat model assessed as decrease in serum TG level at 17.5 mg/kg, sc administered once daily for 11 days and fasted for 12 hrs at end of the experimental period; type: functional, organism-based; settings: time 11.5 day
[6] = test system: Rattus norvegicus; assay: Antidiabetic activity against dexamethasone-induced Wistar rat model assessed as decrease in serum VLDL level at 17.5 mg/kg, sc administered once daily for 11 days and fasted for 12 hrs at end of the experimental period; type: functional, organism-based; settings: time 11.5 day
[7] = test system: C2C12; assay: Cytotoxicity against mouse C2C12 cells assessed as reduction in cell viability at 100 to 200 uM incubated for 24 hrs by MTT assay; type: toxicity, cell-based; settings: c2c12, 24 h, dose 100-200 µM
[8] = test system: C2C12; assay: Upregulation of PPAR-gamma expression in mouse C2C12 cells by ELISA analysis; type: functional, cell-based; settings: dose 6.25-100 µM
[9] = test system: Rattus norvegicus; assay: Effect on serum AST level in dexamethasone-induced Wistar rat model at 17.5 mg/kg, sc administered once daily for 11 days and fasted for 12 hrs at end of the experimental period by biochemical analysis; type: functional, organism-based; settings: time 11.5 day
[10] = test system: Rattus norvegicus; assay: Effect on serum ALT level in dexamethasone-induced Wistar rat model at 17.5 mg/kg, sc administered once daily for 11 days and fasted for 12 hrs at end of the experimental period by biochemical analysis; type: functional, organism-based; settings: time 11.5 day
[11] = test system: Rattus norvegicus; assay: Hypolipidemic activity against dexamethasone-induced Wistar rat model assessed as decrease in serum triglyceride level at 17.5 mg/kg, sc administered once daily for 11 days and fasted for 12 hrs at end of the experimental period; type: functional, organism-based; settings: time 11.5 day
[12] = test system: Rattus norvegicus; assay: Antidiabetic activity against dexamethasone-induced Wistar rat model assessed as decrease in serum glucose level at 17.5 mg/kg, sc administered once daily for 11 days and fasted for 12 hrs at end of the experimental period; type: functional, organism-based; settings: time 11.5 day
[13] = test system: Rattus norvegicus; assay: Effect on serum ALT level in dexamethasone-induced sc dosed Wistar rat model administered once daily for 11 days and fasted for 12 hrs at end of the experimental period by biochemical analysis; type: functional, organism-based; settings: time 11.5 day
[14] = test system: Rattus norvegicus; assay: Hypolipidemic activity against dexamethasone-induced sc dosed Wistar rat model assessed as decrease in serum HDL-c level administered once daily for 11 days and fasted for 12 hrs at end of the experimental period; type: functional, organism-based; settings: time 11.5 day
[15] = test system: Rattus norvegicus; assay: Hypolipidemic activity against dexamethasone-induced sc dosed Wistar rat model assessed as decrease in serum LDL-c level administered once daily for 11 days and fasted for 12 hrs at end of the experimental period; type: functional, organism-based; settings: time 11.0 day
[16] = test system: Rattus norvegicus; assay: Hypolipidemic activity against dexamethasone-induced sc dosed Wistar rat model assessed as decrease in serum TG level administered once daily for 11 days and fasted for 12 hrs at end of the experimental period; type: functional, organism-based; settings: time 11.5 day
[17] = test system: Rattus norvegicus; assay: Antidiabetic activity against dexamethasone-induced sc dosed Wistar rat diabetic model assessed as restoration of histopathological changes administered once daily for 11 days and fasted for 12 hrs at end of the experimental period by hematoxylin and eosin staining based microscopic analysis; type: functional, organism-based; settings: time 11.5 day
[18] = test system: Rattus norvegicus; assay: Antidiabetic activity against dexamethasone-induced sc dosed Wistar rat model assessed as decrease in serum VLDL level administered once daily for 11 days and fasted for 12 hrs at end of the experimental period; type: functional, organism-based; settings: time 11.5 day
[19] = test system: Rattus norvegicus; assay: Effect on serum AST level in dexamethasone-induced sc dosed Wistar rat model administered once daily for 11 days and fasted for 12 hrs at end of the experimental period by biochemical analysis; type: functional, organism-based; settings: time 11.5 day
[20] = test system: Rattus norvegicus; assay: Hypolipidemic activity against dexamethasone-induced sc dosed Wistar rat model assessed as decrease in serum triglyceride level administered once daily for 11 days and fasted for 12 hrs at end of the experimental period; type: functional, organism-based; settings: time 11.5 day
[21] = test system: Rattus norvegicus; assay: Antidiabetic activity against dexamethasone-induced sc dosed Wistar rat model assessed as decrease in serum glucose level administered once daily for 11 days and fasted for 12 hrs at end of the experimental period; type: functional, organism-based; settings: time 11.5 day
[22] = test system: C2C12; assay: Upregulation of PPAR-gamma expression in mouse C2C12 cells at 1 uM by ELISA analysis; type: functional, cell-based

SMILES | Activity [1] | Activity [2] | Activity [3] | Activity [4] | Activity [5] | Activity [6] | Activity [7] | Activity [8] | Activity [9] | Activity [10] | Activity [11] | Activity [12] | other results
O=C(CN1C(=O)S/C(=C\c2cccs2)C1=O)Nc1cccc(C(F)(F)F)c1 | Active | Active | Active | Active | Active | Active | Non-Toxic | Dose-Dependent Effect | Active | Active | Active | Active | 
Cc1c(Cl)cccc1NC(=O)CN1C(=O)S/C(=C\c2cccs2)C1=O |  |  |  | Active |  |  | Non-Toxic |  |  |  |  |  | Activity [13]: Active; Activity [14]: Active; Activity [15]: Active; Activity [16]: Active; Activity [17]: Active; Activity [18]: Active; Activity [19]: Active; Activity [20]: Active; Activity [21]: Active
CCc1ccc(CCOc2ccc(CC3SC(=O)NC3=O)cc2)nc1 (stereo unspecified) |  |  |  |  |  |  |  |  |  |  |  |  | Activity [22]: Active
O=C(CN1C(=O)S/C(=C\c2cccs2)C1=O)Nc1cc(Cl)c(Cl)cc1Cl | Active | Active | Active | Active | Active | Active | Non-Toxic | Dose-Dependent Effect | Active | Active | Active | Active | 
